Assay results reported in patent US12187746B2, “C26-linked rapamycin analogs as mTOR inhibitors” (Revolution Medicines, Inc., priority 2018, dated 2025).

Key:
[1] = system: P-P70S6K (T389); assay: Cell based AlphaLISA assay, inhibition of P-P70S6K (T389) in MDA-MB-468 cells; conditions: Homo sapiens, 4 h, 0.017-1,000 nM, two to four hours at 37° C., AlphaLisa SureFire Ultra, read-out: pIC50 for Inhibition of mTORC1 and mTORC2 Substrate Phosphorylation, p-P70S6K-(T389) (converted)
Protocol: (§1) Cell Based AlphaLISA Assays For Determining IC50 For Inhibition of P-Akt (S473), P-4E-BP1 (T37/46), and P-P70S6K (T389) in MDA-MB-468 Cells
(§2) mTOR Kinase Cellular Assay
(§3) To measure functional activity of mTORC1 and mTORC2 in cells the phosphorylation of 4EBP1 (Thr37/46) and P70S6K (Thr389), and AKT1/2/3 (Ser473) was monitored using AlphaLisa SureFire Ultra Kits (Perkin Elmer). […] Incubations are terminated by removal of the assay buffer and addition of lysis buffer provided with the assay kit. Samples are processed according to the manufacturer's instructions. The Alpha signal from the respective phosphoproteins is measured in duplicate using a microplate reader (Envision, Perkin-Elmer or Spectramax M5, Molecular Devices). Inhibitor concentration response curves are analyzed using normalized IC50 regression curve fitting with control based normalization.

[2] = system: P-4E-BP1 (T37/46); assay: Cell based AlphaLISA assay, inhibition of P-4E-BP1 (T37/46) in MDA-MB-468 cells; conditions: Homo sapiens, 4 h, 0.017-1,000 nM, two to four hours at 37° C., AlphaLisa SureFire Ultra, read-out: pIC50 for Inhibition of mTORC1 and mTORC2 Substrate Phosphorylation, p-4E-BP1-(T37/46) (converted)
Protocol: as §1, §2, §3

[3] = system: P-Akt (S473); assay: Cell based AlphaLISA assay, inhibition of P-Akt (S473) in MDA-MB-468 cells; conditions: Homo sapiens, 4 h, 0.017-1,000 nM, two to four hours at 37° C., AlphaLisa SureFire Ultra, read-out: pIC50 for Inhibition of mTORC1 and mTORC2 Substrate Phosphorylation, p-AKT1/2/3-(S473) (converted)
Protocol: as §1, §2, §3

CO[C@H]1C[C@@H]2CC[C@@H](C)[C@@](O)(O2)C(=O)C(=O)N2CCCC[C@H]2C(=O)O[C@H]([C@H](C)C[C@@H]2CC[C@@H](O)[C@H](OC)C2)C[C@@H](O)[C@H](C)/C=C(\C)[C@@H](O)[C@@H](OC)C(=NOCC(=O)NCc2cnc(N3CCN(C(=O)CN(C)CC(=O)NCCOCCOCCC(=O)N4CCc5cc(Cn6nc(-c7ccc8oc(N)nc8c7)c7c(N)ncnc76)ccc5C4)CC3)nc2)[C@H](C)C[C@H](C)/C=C/C=C/C=C/1C [Example 25]
IC50 [1]: 1 to 10 nM | IC50 [2]: 31.6 to 1000 nM | IC50 [3]: > 1000 nM

CO[C@H]1C[C@@H]2CC[C@@H](C)[C@@](O)(O2)C(=O)C(=O)N2CCCC[C@H]2C(=O)O[C@H]([C@H](C)C[C@@H]2CC[C@@H](O)[C@H](OC)C2)C[C@@H](O)[C@H](C)/C=C(\C)[C@@H](O)[C@@H](OC)C(=NOCC(=O)NCc2cnc(N3CCN(C(=O)CN(C)CC(=O)NCCOCCOCCC(=O)NCCCCn4nc(-c5cnc6[nH]ccc6c5)c5c(N)ncnc54)CC3)nc2)[C@H](C)C[C@H](C)/C=C/C=C/C=C/1C [Example 22]
IC50 [1]: 1 to 10 nM | IC50 [2]: 31.6 to 1000 nM | IC50 [3]: > 1000 nM

CO[C@H]1C[C@@H]2CC[C@@H](C)[C@@](O)(O2)C(=O)C(=O)N2CCCC[C@H]2C(=O)O[C@H]([C@H](C)C[C@@H]2CC[C@@H](O)[C@H](OC)C2)C[C@@H](O)[C@H](C)/C=C(\C)[C@@H](O)[C@@H](OC)C(=NOCC(=O)NCCOCCOCCOCCOCCOCCOCCOCCOCCC(=O)NCCCCn2nc(-c3cnc4[nH]ccc4c3)c3c(N)ncnc32)[C@H](C)C[C@H](C)/C=C/C=C/C=C/1C [Example 6]
IC50 [1]: 1 to 10 nM | IC50 [2]: 3.16 to 31.6 nM | IC50 [3]: > 1000 nM

CO[C@H]1C[C@@H]2CC[C@@H](C)[C@@](O)(O2)C(=O)C(=O)N2CCCC[C@H]2C(=O)O[C@H]([C@H](C)C[C@@H]2CC[C@@H](O)[C@H](OC)C2)C[C@@H](O)[C@H](C)/C=C(\C)[C@@H](O)[C@@H](OC)C(=NOCC(=O)NCc2cnc(N3CCN(C(=O)CCOCCN4CCN(c5ncc(C(=O)NCCCCn6nc(-c7ccc8oc(N)nc8c7)c7c(N)ncnc76)cn5)CC4)CC3)nc2)[C@H](C)C[C@H](C)/C=C/C=C/C=C/1C [Example 29]
IC50 [1]: 1 to 10 nM | IC50 [2]: 3.16 to 31.6 nM | IC50 [3]: 31.6 to 1000 nM

CO[C@H]1C[C@@H]2CC[C@@H](C)[C@@](O)(O2)C(=O)C(=O)N2CCCC[C@H]2C(=O)O[C@H]([C@H](C)C[C@@H]2CC[C@@H](O)[C@H](OC)C2)C[C@@H](O)[C@H](C)/C=C(\C)[C@@H](O)[C@@H](OC)C(=NOCC(=O)NCCOCCOCCOCCOCCOCCOCCOCCOCCC(=O)NCCS(=O)(=O)c2ccc(C(=O)N3CCOc4ccc(-c5ccc(N)nc5)cc4C3)c(C)c2F)[C@H](C)C[C@H](C)/C=C/C=C/C=C/1C [Example 46]
IC50 [1]: 1 to 10 nM | IC50 [2]: 3.16 to 31.6 nM | IC50 [3]: > 1000 nM

CO[C@H]1C[C@@H]2CC[C@@H](C)[C@@](O)(O2)C(=O)C(=O)N2CCCC[C@H]2C(=O)O[C@H]([C@H](C)C[C@@H]2CC[C@@H](O)[C@H](OC)C2)C[C@@H](O)[C@H](C)/C=C(\C)[C@@H](O)[C@@H](OC)C(=NOCC(=O)NCc2cnc(N3CCN(C(=O)CCCN4CCN(c5ncc(C(=O)NCCCCn6nc(-c7ccc8oc(N)nc8c7)c7c(N)ncnc76)cn5)CC4)CC3)nc2)[C@H](C)C[C@H](C)/C=C/C=C/C=C/1C [Example 37]
IC50 [1]: < 1 nM | IC50 [2]: 3.16 to 31.6 nM | IC50 [3]: 3.16 to 31.6 nM

CO[C@H]1C[C@@H]2CC[C@@H](C)[C@@](O)(O2)C(=O)C(=O)N2CCCC[C@H]2C(=O)O[C@H]([C@H](C)C[C@@H]2CC[C@@H](O)[C@H](OC)C2)C[C@@H](O)[C@H](C)/C=C(\C)[C@@H](O)[C@@H](OC)C(=NOCC(=O)N2CCc3nc(N4CCN(c5ncc(C(=O)NCCOCCC(=O)N6CCc7cc(Cn8nc(-c9ccc%10oc(N)nc%10c9)c9c(N)ncnc98)ccc7C6)cn5)CC4)ncc3C2)[C@H](C)CC(C)/C=C/C=C/C=C/1C (stereo partly drawn) [Example 18]
IC50 [1]: 1 to 10 nM | IC50 [2]: 3.16 to 31.6 nM | IC50 [3]: > 1000 nM

CO[C@H]1C[C@@H]2CC[C@@H](C)[C@@](O)(O2)C(=O)C(=O)N2CCCC[C@H]2C(=O)O[C@H]([C@H](C)C[C@@H]2CC[C@@H](O)[C@H](OC)C2)C[C@@H](O)[C@H](C)/C=C(\C)[C@@H](O)[C@@H](OC)C(=NOCC(=O)NCCOCCOCCOCCOCCOCCOCCC(=O)NCCCCn2nc(-c3cnc4[nH]ccc4c3)c3c(N)ncnc32)[C@H](C)C[C@H](C)/C=C/C=C/C=C/1C [Example 7]
IC50 [1]: < 1 nM | IC50 [2]: 3.16 to 31.6 nM | IC50 [3]: > 1000 nM

CO[C@H]1C[C@@H]2CC[C@@H](C)[C@@](O)(O2)C(=O)C(=O)N2CCCC[C@H]2C(=O)O[C@H]([C@H](C)C[C@@H]2CC[C@@H](O)[C@H](OC)C2)C[C@@H](O)[C@H](C)/C=C(\C)[C@@H](O)[C@@H](OC)C(=NOCC(=O)NCCOCCC(=O)NCc2cnc(N3CCN(C(=O)CCOCCN4CCN(c5ncc(C(=O)NCCCCn6nc(-c7ccc8oc(N)nc8c7)c7c(N)ncnc76)cn5)CC4)CC3)nc2)[C@H](C)C[C@H](C)/C=C/C=C/C=C/1C [Example 43]
IC50 [1]: < 1 nM | IC50 [2]: 3.16 to 31.6 nM | IC50 [3]: 31.6 to 1000 nM

COc1ccc(-c2ccc3ncc4c(c3c2)n(-c2ccc(N3CCN(C(=O)CCOCCOCCOCCOCCOCCOCCNC(=O)CON=C5[C@H](C)C[C@H](C)/C=C/C=C/C=C(\C)[C@@H](OC)C[C@@H]6CC[C@@H](C)[C@@](O)(O6)C(=O)C(=O)N6CCCC[C@H]6C(=O)O[C@H]([C@H](C)C[C@@H]6CC[C@@H](O)[C@H](OC)C6)C[C@@H](O)[C@H](C)/C=C(\C)[C@@H](O)[C@H]5OC)CC3)c(C(F)(F)F)c2)c(=O)n4C)cn1 [Example 13]
IC50 [1]: < 1 nM | IC50 [2]: < 3.16 nM | IC50 [3]: 3.16 to 31.6 nM

CO[C@H]1C[C@@H]2CC[C@@H](C)[C@@](O)(O2)C(=O)C(=O)N2CCCC[C@H]2C(=O)O[C@H]([C@H](C)C[C@@H]2CC[C@@H](O)[C@H](OC)C2)C[C@@H](O)[C@H](C)/C=C(\C)[C@@H](O)[C@@H](OC)C(=NOCC(=O)N2CCc3nc(N4CCN(CCOCCN5CCN(c6ncc(C(=O)N7CCc8cc(Cn9nc(-c%10ccc%11oc(N)nc%11c%10)c%10c(N)ncnc%109)ccc8C7)cn6)CC5)CC4)ncc3C2)[C@H](C)C[C@H](C)/C=C/C=C/C=C/1C [Example 61]
IC50 [1]: 1 to 10 nM | IC50 [2]: 3.16 to 31.6 nM | IC50 [3]: > 1000 nM

CO[C@H]1C[C@@H]2CC[C@@H](C)[C@@](O)(O2)C(=O)C(=O)N2CCCC[C@H]2C(=O)O[C@H]([C@H](C)C[C@@H]2CC[C@@H](O)[C@H](OC)C2)C[C@@H](O)[C@H](C)/C=C(\C)[C@@H](O)[C@@H](OC)C(=NOCC(=O)NCc2cnc(N3CCN(c4ncc(C(=O)NCCOCCOCCOCCC(=O)NCCCCn5nc(-c6ccc7oc(N)nc7c6)c6c(N)ncnc65)cn4)CC3)nc2)[C@H](C)C[C@H](C)/C=C/C=C/C=C/1C [Example 20]
IC50 [1]: 1 to 10 nM | IC50 [2]: 3.16 to 31.6 nM | IC50 [3]: > 1000 nM

CO[C@H]1C[C@@H]2CC[C@@H](C)[C@@](O)(O2)C(=O)C(=O)N2CCCC[C@H]2C(=O)O[C@H]([C@H](C)C[C@@H]2CC[C@@H](O)[C@H](OC)C2)C[C@@H](O)[C@H](C)/C=C(\C)[C@@H](O)[C@@H](OC)C(=NOCC(=O)NCc2cnc(N3CCC(N4CCC(C(=O)NCCOCCC(=O)N5CCc6cc(Cn7nc(-c8ccc9oc(N)nc9c8)c8c(N)ncnc87)ccc6C5)CC4)CC3)nc2)[C@H](C)C[C@H](C)/C=C/C=C/C=C/1C [Example 52]
IC50 [1]: 1 to 10 nM | IC50 [2]: 3.16 to 31.6 nM | IC50 [3]: > 1000 nM

CO[C@H]1C[C@@H]2CC[C@@H](C)[C@@](O)(O2)C(=O)C(=O)N2CCCC[C@H]2C(=O)O[C@H]([C@H](C)C[C@@H]2CC[C@@H](O)[C@H](OC)C2)C[C@@H](O)[C@H](C)/C=C(\C)[C@@H](O)[C@@H](OC)C(=NOCC(=O)NCc2cnc(N3CCN(C(=O)CCOCCN4CCN(c5ncc(C(=O)N6CCc7cc(Cn8nc(-c9ccc%10oc(N)nc%10c9)c9c(N)ncnc98)ccc7C6)cn5)CC4)CC3)nc2)[C@H](C)C[C@H](C)/C=C/C=C/C=C/1C [Example 30]
IC50 [1]: < 1 nM | IC50 [2]: 3.16 to 31.6 nM | IC50 [3]: > 1000 nM

CO[C@H]1C[C@@H]2CC[C@@H](C)[C@@](O)(O2)C(=O)C(=O)N2CCCC[C@H]2C(=O)O[C@H]([C@H](C)C[C@@H]2CC[C@@H](O)[C@H](OC)C2)C[C@@H](O)[C@H](C)/C=C(\C)[C@@H](O)[C@@H](OC)C(=NOC(C)(C)C(=O)NCCOCCOCCOCCOCCOCCOCCC(=O)N2CCc3cc(Cn4nc(-c5ccc6oc(N)nc6c5)c5c(N)ncnc54)ccc3C2)[C@H](C)C[C@H](C)/C=C/C=C/C=C/1C [Example 48]
IC50 [1]: 10 to 1000 nM | IC50 [2]: 3.16 to 31.6 nM | IC50 [3]: > 1000 nM
